Drawing on ChEMBL document CHEMBL3734705, “Synthesis and in vitro cytotoxicity of novel C-12 substituted-14-deoxy-andrographolide derivatives as potent anti-cancer agents” (2015), this text covers Activity for two compounds.

A short description of experiment [1]: Cytotoxicity against human UACC257 cells assessed as growth level at 10 uM after 48 hrs by SRB assay. Format: functional, UACC-257.
The next experiment deals with NCI-H522. Put plainly: Cytotoxicity against human NCI-H522 cells assessed as growth level at 10 uM after 48 hrs by SRB assay. Type of experiment: functional. A general note: The SRB assay estimates cell density from bound dye.
The nature of experiment [2]: Cytotoxicity against human Hs578T cells assessed as growth level at 10 uM after 48 hrs by SRB assay. Format: functional, Hs-578T.
The subject of another experiment is 786-0. Put plainly: Cytotoxicity against human 786-0 cells assessed as growth level at 10 uM after 48 hrs by SRB assay. Type of experiment: functional.
The nature of experiment [3]: Cytotoxicity against human SW620 cells assessed as growth level at 10 uM after 48 hrs by SRB assay. Format: functional, SW-620.
The subject of a further experiment is M14. Kind of experiment: Cytotoxicity against human M14 cells assessed as growth level at 10 uM after 48 hrs by SRB assay. Format: functional.
A short description of experiment [4]: Cytotoxicity against human TK10 cells assessed as growth level at 10 uM after 48 hrs by SRB assay. Type of experiment: functional, TK-10.
The next experiment deals with CCRF-CEM. Kind of experiment: Cytotoxicity against human CCRF-CEM cells assessed as growth level at 10 uM after 48 hrs by SRB assay. Format: functional.
The nature of experiment [5]: Cytotoxicity against human SF268 cells assessed as growth level at 10 uM after 48 hrs by SRB assay. Type of experiment: functional, SF-268.
The subject of the next experiment is MDA-MB-435. Kind of experiment: Cytotoxicity against human MDA-MB-435 cells assessed as growth level at 10 uM after 48 hrs by SRB assay. Type of experiment: functional.
The nature of experiment [6]: Cytotoxicity against human HOP62 cells assessed as growth level at 10 uM after 48 hrs by SRB assay. Type of experiment: functional, HOP-62.
In the next experiment the test system is HT-29. Kind of experiment: Cytotoxicity against human HT-29 cells assessed as growth level at 10 uM after 48 hrs by SRB assay. Type of experiment: functional.
Experiment [7] in a line: Cytotoxicity against human IGROV1 cells assessed as growth level at 10 uM after 48 hrs by SRB assay. Format: functional, IGROV-1.
A short description of experiment [8]: Cytotoxicity against human LOXIMVI cells assessed as growth level at 10 uM after 48 hrs by SRB assay. Format: functional, LOX IMVI.
Experiment [9] can be described thus: Cytotoxicity against human HL-60(TB) cells assessed as growth level at 10 uM after 48 hrs by SRB assay. Format: functional.
Experiment [10] is described as follows: Cytotoxicity against human SF539 cells assessed as growth level at 10 uM after 48 hrs by SRB assay. Type of experiment: functional, SF-539.
The test system of another experiment is EKVX. Put plainly: Cytotoxicity against human EKVX cells assessed as growth level at 10 uM after 48 hrs by SRB assay. Format: functional.
Experiment [11] can be described thus: Cytotoxicity against human SKOV3 cells assessed as growth level at 10 uM after 48 hrs by SRB assay. Format: functional, SK-OV-3.
The test system of the next experiment is MDA-MB-468. Put plainly: Cytotoxicity against human MDA-MB-468 cells assessed as growth level at 10 uM after 48 hrs by SRB assay. Type of experiment: functional.
The subject of another experiment is A498. Kind of experiment: Cytotoxicity against human A498 cells assessed as growth level at 10 uM after 48 hrs by SRB assay. Format: functional.
Experiment [12] in a line: Cytotoxicity against human RPMI8226 cells assessed as growth level at 10 uM after 48 hrs by SRB assay. Format: functional, RPMI-8226.
Experiment [13] can be described thus: Cytotoxicity against human COLO205 cells assessed as growth level at 10 uM after 48 hrs by SRB assay. Type of experiment: functional, COLO 205.
Experiment [14] can be described thus: Cytotoxicity against human OVCAR8 cells assessed as growth level at 10 uM after 48 hrs by SRB assay. Format: functional, OVCAR-8.

On to `C=C1CC[C@@H]2[C@](C)(COC(C)=O)[C@H](OC(C)=O)CC[C@@]2(C)[C@@H]1CC(Nc1ccc(S(=O)(=O)NC(C)=O)cc1)C1=CCOC1=O` (mixture of isomers), for which the Activity in experiment [1] was -10.57%; with NCI-H522, -63.21%; in [2], 32.45%; with 786-0, -66.04%; in [3], -65.65%; in the experiment with M14 it was -35.08%. For the same compound, the Activity is on record as 2.78% in experiment [4]; -27.89% in the experiment on CCRF-CEM; 6.72% in experiment [5]; -38.84% in the experiment on MDA-MB-435; 81.97% in experiment [6]; -69.92% in the experiment with HT-29. Also, the Activity is on record as -10.04% in experiment [7]; -85.84% in experiment [8]; -31.09% in experiment [9]; -76.71% in [10]; 57.45% with EKVX; 67.34% in [11]. The Activity with MDA-MB-468 is listed as -53.94%; in the experiment with A498, 73.42%; in experiment [12], -16.18%; in experiment [13], -32.73%; in experiment [14], -18.21%.
On to `C=C1CC[C@@H]2[C@](C)(COC(C)=O)[C@H](OC(C)=O)CC[C@@]2(C)[C@@H]1CC(Sc1ccccc1)C1=CCOC1=O` (mixture of isomers), for which the Activity in experiment [1] was 29.37%; with NCI-H522 it was -80.61%; in [2], 54.23%; in the experiment on 786-0 it was -31.19%; in experiment [3], 0.83%; with M14, -4.19%. For the same compound, the Activity is on record as 11.37% in experiment [4]; -5.24% with CCRF-CEM; 11.62% in experiment [5]; 101.38% in the experiment on MDA-MB-435; -18.21% in [6]; -39.29% in the experiment on HT-29. The Activity in experiment [7] is 25.2%; in experiment [8] it was -83.89%; in [9] it was -46.54%; in experiment [10] it was -43.56%; with EKVX, 57.74%; in experiment [11] it was 57.71%. Moreover, the Activity in the experiment with MDA-MB-468 is -61.07%; in the experiment with A498, 86.34%; in experiment [12] it was -4.72%; in experiment [13], -68.06%; in experiment [14] it was 11.88%.
